A value given as a limit tells only on which side of the number the result lay.

By IC50 is commonly meant the concentration needed to halve the response being measured. A low value points to greater potency in that assay. In general, Ki refers to a dissociation constant, usually derived from enzyme kinetics or from competition with a known ligand. The low end stands for a stronger hold on the target, the high end for a looser hold on the target.

Sequence of EEF1AKMT4-ECE2 readthrough transcript protein (P0DPD8 whole entry): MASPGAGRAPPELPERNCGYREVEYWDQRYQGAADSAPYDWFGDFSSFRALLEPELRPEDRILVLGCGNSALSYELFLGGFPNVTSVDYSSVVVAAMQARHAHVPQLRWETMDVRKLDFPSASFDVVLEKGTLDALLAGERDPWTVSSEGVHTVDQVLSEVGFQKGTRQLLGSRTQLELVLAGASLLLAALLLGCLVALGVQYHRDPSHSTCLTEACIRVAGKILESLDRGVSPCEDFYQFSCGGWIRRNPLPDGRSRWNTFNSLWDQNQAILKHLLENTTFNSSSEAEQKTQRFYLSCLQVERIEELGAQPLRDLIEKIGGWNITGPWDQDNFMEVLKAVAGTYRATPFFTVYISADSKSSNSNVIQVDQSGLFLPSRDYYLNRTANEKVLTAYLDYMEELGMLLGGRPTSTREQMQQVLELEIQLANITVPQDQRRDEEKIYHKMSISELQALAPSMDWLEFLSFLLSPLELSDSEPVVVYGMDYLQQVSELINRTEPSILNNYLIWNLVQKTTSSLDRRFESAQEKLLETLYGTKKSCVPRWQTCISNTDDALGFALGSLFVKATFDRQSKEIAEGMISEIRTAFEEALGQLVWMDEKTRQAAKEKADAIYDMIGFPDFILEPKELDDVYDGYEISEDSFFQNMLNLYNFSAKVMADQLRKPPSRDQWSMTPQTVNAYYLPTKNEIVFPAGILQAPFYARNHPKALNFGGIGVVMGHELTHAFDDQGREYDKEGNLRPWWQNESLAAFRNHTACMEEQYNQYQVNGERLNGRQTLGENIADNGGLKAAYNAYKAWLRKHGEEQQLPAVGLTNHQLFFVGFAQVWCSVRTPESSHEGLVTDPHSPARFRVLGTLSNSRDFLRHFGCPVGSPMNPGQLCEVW

For the assay, the target named is EEF1AKMT4-ECE2 readthrough transcript protein (Homo sapiens, UniProt P0DPD8). Kind of assay: Enzymatic Assay. The source says:
Inhibitory assay against ECE-2.
As to `O=C(O)CC(=O)N[C@@H](CS)Cc1ccccc1` [Retrothiorphan], the IC50 is greater than 10000 nM and the Ki is greater than 10000 nM.
`O=C(O)CNC(=O)[C@@H](CS)Cc1ccccc1` [2-(2-benzyl-3-sulfanylpropanamido)acetic acid] yielded an IC50 greater than 100000 nM and a Ki greater than 100000 nM.
On to `C[C@H](CS)C(=O)N1CCC[C@H]1C(=O)O` [(2S)-1-[(2S)-2-methyl-3-sulfanylpropanoyl]pyrrolidine-2-carboxylic acid], for which the IC50 was greater than 100000 nM and the Ki was greater than 100000 nM.
With `O=C(N[C@@H](Cc1c[nH]c2ccccc12)C(=O)O)C(CS)C1CCc2cc(Br)ccc21` (stereo partly drawn) [(2S)-2-[2-(5-bromo-2,3-dihydro-1H-inden-1-yl)-3-sulfanylpropanamido]-3-(1H-indol-3-yl)propanoic acid, 1], the midpoint of inhibition, the IC50, lay at 43.4 nM and the Ki is 22.3 nM.
Take `CC(C)C[C@H](NP(=O)(O)O[C@@H]1O[C@@H](C)[C@H](O)[C@@H](O)[C@H]1O)C(=O)N[C@@H](Cc1c[nH]c2ccccc12)C(=O)O` [(S)-2-{(R)-2-[Hydroxy-((2R,3R,4R,5R,6S)-3,4,5-trihydroxy-6-methyl-tetrahydro-pyran-2-yloxy)-phosphorylamino]-4-methyl-pentanoylamino}-3-(1H-indol-3-yl)-propionic acid]: the IC50 worked out at 2.33 nM and the Ki turned out to be 1.2 nM.
As for `C[C@H](NC(=O)[C@@H](CC(=O)NO)Cc1ccccc1)C(=O)O` [Kelatorphan], the half-inhibitory concentration (IC50) stood at 380 nM and the inhibition constant Ki is 195 nM.
The molecule `O=C(O)[C@H](Cc1c[nH]c2ccccc12)NC(=O)[C@H](CS)C1CCc2ccccc21` (stereo partly drawn) [(2S)-2-[(2R)-2-(2,3-dihydro-1H-inden-1-yl)-3-sulfanylpropanamido]-3-(1H-indol-3-yl)propanoic acid, 2] yielded an IC50 of 15.1 nM and an inhibitory constant (Ki) of 7.7 nM.

The values above are taken from BindingDB's records for doi:10.1074/jbc.M110.120576 (Pharmaleads, 2010).
